In ChEMBL document CHEMBL6109134, “Discovery of AMG 193, an MTA-Cooperative PRMT5 Inhibitor for the Treatment of MTAP-Deleted Cancers” (J Med Chem, 2025):
Values after ≈ are worked out from the molar mass of the structure shown.

What was measured:
human MDR1 (P-gp) = test: Efflux ratio of permeability across basolateral to apical side over apical to basolateral side in MDCK cells transfected with human MDR1 in absence of elacridar; conditions: dog
[1] = Metabolic stability in human liver microsomes assessed as intrinsic clearance at 0.5 uM incubated for 40 mins in presence of NADPH; assay type: ADME, Microsome; conditions: read-out: CLH
[2] = Unbound clearance in CD-1 mouse at 1 mg/kg, iv; assay type: ADME, organism-based; conditions: in vivo
U-87 MG = test: Antiproliferative activity against human U-87 MG cells assessed as effect on cell viability; assay type: functional, cell-based, U-87MG ATCC
[3] = target: Voltage-gated inwardly rectifying potassium channel KCNH2 (Homo sapiens, UniProt Q12809); test: Inhibition of human ERG by binding assay
[4] = Solubility of compound in Hcl buffer at pH 2.0
[5] = Solubility of compound in PBS buffer at pH 7.4
Cytochrome P450 2D6 = Cytochrome P450 2D6 (Homo sapiens, UniProt P10635); test: Inhibition of CYP2D6 (unknown origin)
[6] = Metabolic stability in rat liver microsomes assessed as intrinsic clearance; assay type: ADME, Microsome; conditions: time 40 min, read-out: CLH
[7] = Metabolic stability in dog liver microsomes assessed as intrinsic clearance; assay type: ADME, Canis lupus familiaris, Microsome; conditions: read-out: CLH
[8] = Metabolic stability in rat hepatocytes assessed as intrinsic clearance measured per 10^6 cells; assay type: ADME, cell-based, Hepatocyte; conditions: read-out: CLH
[9] = Metabolic stability in mouse hepatocytes assessed as intrinsic clearance measured per 10^6 cells; assay type: ADME, cell-based, Hepatocyte; conditions: read-out: CLH
[10] = Protein binding in rat plasma assessed as unbound fraction by ultracentrifugation
[11] = Protein binding in dog plasma assessed as unbound fraction by ultracentrifugation
[12] = Mutagenicity in Salmonella typhimurium by Ames test; assay type: toxicity; conditions: salmonella enterica subsp. enterica serovar typhimurium
[13] = Passive permeability in MDCK-II cells at 0.1 to 10 uM; assay type: ADME, cell-based, Canis lupus familiaris; conditions: dog, dose 0.1-10 µM, read-out: permeability
[14] = Efflux ratio in MDCK-II cells; conditions: dog
[15] = target: T1, Broad substrate specificity ATP-binding cassette transporter ABCG2 (Homo sapiens, UniProt Q9UNQ0); test: Effect on BCRP (unknown origin)-mediated transport up to 10 uM
T1 sequence (Q9UNQ0 whole entry): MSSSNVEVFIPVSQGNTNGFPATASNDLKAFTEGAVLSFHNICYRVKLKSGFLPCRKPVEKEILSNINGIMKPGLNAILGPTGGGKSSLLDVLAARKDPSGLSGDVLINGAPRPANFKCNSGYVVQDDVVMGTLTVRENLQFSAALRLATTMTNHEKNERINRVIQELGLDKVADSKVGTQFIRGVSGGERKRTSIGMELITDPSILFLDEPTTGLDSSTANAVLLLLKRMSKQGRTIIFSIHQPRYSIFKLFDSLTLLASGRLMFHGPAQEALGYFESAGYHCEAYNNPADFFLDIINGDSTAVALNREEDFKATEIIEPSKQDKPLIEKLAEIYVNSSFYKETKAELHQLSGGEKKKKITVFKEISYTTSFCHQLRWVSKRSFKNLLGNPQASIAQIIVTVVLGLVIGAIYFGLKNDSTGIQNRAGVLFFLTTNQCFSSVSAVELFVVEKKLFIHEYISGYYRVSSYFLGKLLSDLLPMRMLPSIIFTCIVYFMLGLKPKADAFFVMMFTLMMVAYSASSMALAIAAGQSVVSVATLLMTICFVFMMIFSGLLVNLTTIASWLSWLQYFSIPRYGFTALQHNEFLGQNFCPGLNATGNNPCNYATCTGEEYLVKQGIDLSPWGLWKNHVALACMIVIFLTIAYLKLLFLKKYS

[16] = Unbound brain-to-plasma concentration ratio in male Sprague-Dawley rat at 25 mg/kg, po administered as single dose; assay type: ADME, organism-based; conditions: read-out: K(p,uu,brain)
[17] = Unbound brain-to-plasma concentration ratio in female Sprague-Dawley rat at 25 mg/kg, po administered as single dose; assay type: ADME, organism-based; conditions: read-out: K(p,uu,brain)
[18] = Unbound CSF-to-plasma concentration ratio in female Sprague-Dawley rat at 25 mg/kg, po administered as single dose; assay type: ADME, organism-based
[19] = Unbound CSF-to-plasma concentration ratio in male Sprague-Dawley rat at 75 mg/kg, po administered as single dose; assay type: ADME, organism-based
[20] = Unbound CSF-to-plasma concentration ratio in female Sprague-Dawley rat at 75 mg/kg, po administered as single dose; assay type: ADME, organism-based
[21] = target: Protein arginine N-methyltransferase 5 (Homo sapiens) (UniProt O14744); test: In vivo inhibition of PRMT5 in athymic nude mouse xenografted with human HCT-116 cells harboring wildtype MTAP assessed as decrease in SDMA level in tumor at 30 mg/kg, po administered once daily for 4 days and measured 4 hrs post last dose by ELISA relative to control; assay type: functional, organism-based; conditions: time 4.0 day
[22] = target: Protein arginine N-methyltransferase 5 (Homo sapiens) (UniProt O14744); test: In vivo inhibition of PRMT5 in athymic nude mouse xenografted with MTAP-deleted human HCT-116 cells assessed as decrease in SDMA level in tumor at 10 mg/kg, po administered once daily for 4 days and measured 4 hrs post last dose by ELISA relative to control; assay type: functional, organism-based; conditions: time 4.0 day
[23] = target: Protein arginine N-methyltransferase 5 (Homo sapiens) (UniProt O14744); test: In vivo inhibition of PRMT5 in athymic nude mouse xenografted with MTAP-deleted human HCT-116 cells assessed as decrease in SDMA level in tumor at 100 mg/kg, po administered once daily for 4 days and measured 4 hrs post last dose by ELISA relative to control; assay type: functional, organism-based; conditions: time 4.0 day
HCT-116 [24] = test: Antitumor activity against MTAP-deleted human HCT-116 cells xenografted in female athymic nude mouse model assessed as tumor growth inhibition at 30 mg/kg, po administered once daily for 14 days relative to control; assay type: functional; conditions: HCT-116, 336 h, time 14 day, read-out: TGI
HCT-116 [25] = test: Antitumor activity against MTAP-deleted human HCT-116 cells xenografted in female athymic nude mouse model assessed as tumor growth inhibition at 100 mg/kg, po administered once daily for 14 days relative to control; assay type: functional; conditions: HCT-116, 336 h, time 14 day, read-out: TGI
[26] = Toxicity in female athymic nude mouse xenografted with human HCT-116 cells harboring wildtype MTAP assessed as body weight change at 3 to 100 mg/kg, po administered once daily for 14 days; assay type: organism-based; conditions: in vivo, 336 h, dose 3-100 mg/kg, time 14 day
[27] = Toxicity in female athymic nude mouse xenografted with MTAP-deleted human HCT-116 cells assessed as body weight change at 3 to 100 mg/kg, po administered once daily for 14 days; assay type: organism-based; conditions: in vivo, 336 h, dose 3-100 mg/kg, time 14 day
[28] = Antitumor activity against MTAP-deleted human U-87 MG cells xenografted in female athymic nude mouse model assessed as tumor growth inhibition at 300 mg/kg, po administered once daily for 14 days and measured 24 hrs post last dose relative to control; assay type: functional, U-87MG ATCC; conditions: 360 h, time 15 day, read-out: TGI
[29] = target: Protein arginine N-methyltransferase 5 (Homo sapiens) (UniProt O14744); test: In vivo inhibition of PRMT5 in female athymic nude mouse xenografted with MTAP-deleted human U-87 MG cells assessed as decrease in SDMA level in tumor at 100 mg/kg, po administered once daily for 14 days and measured 2 to 8 hrs post last dose by ELISA relative to control; assay type: functional, organism-based; conditions: time 338-344 hrs
[30] = Toxicity in female athymic nude mouse xenografted with MTAP-deleted human U-87 MG cells assessed as effect on body weight at 10 to 100 mg/kg, po administered once daily for 14 days; assay type: organism-based; conditions: in vivo, 336 h, dose 10-100 mg/kg, time 14 day

Sequence of Protein arginine N-methyltransferase 5 (Homo sapiens) (O14744 whole entry): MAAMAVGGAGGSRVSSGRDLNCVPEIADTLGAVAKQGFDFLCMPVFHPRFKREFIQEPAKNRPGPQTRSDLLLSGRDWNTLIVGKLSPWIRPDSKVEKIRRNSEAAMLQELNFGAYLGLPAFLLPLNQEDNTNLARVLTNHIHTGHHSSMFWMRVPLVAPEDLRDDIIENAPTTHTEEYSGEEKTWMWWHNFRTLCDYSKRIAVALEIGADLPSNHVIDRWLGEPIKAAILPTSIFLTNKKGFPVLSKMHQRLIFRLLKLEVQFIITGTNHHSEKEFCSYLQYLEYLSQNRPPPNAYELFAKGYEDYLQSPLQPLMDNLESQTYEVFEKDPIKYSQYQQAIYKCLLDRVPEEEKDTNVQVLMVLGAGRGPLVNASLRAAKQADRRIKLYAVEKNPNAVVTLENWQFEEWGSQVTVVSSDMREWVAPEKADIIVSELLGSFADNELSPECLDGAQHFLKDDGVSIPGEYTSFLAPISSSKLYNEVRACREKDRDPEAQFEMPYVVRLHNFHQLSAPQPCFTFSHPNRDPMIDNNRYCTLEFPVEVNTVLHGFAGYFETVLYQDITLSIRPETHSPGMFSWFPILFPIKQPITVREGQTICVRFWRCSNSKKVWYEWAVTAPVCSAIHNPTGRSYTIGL
Sequence of Cytochrome P450 2D6 (P10635 whole entry): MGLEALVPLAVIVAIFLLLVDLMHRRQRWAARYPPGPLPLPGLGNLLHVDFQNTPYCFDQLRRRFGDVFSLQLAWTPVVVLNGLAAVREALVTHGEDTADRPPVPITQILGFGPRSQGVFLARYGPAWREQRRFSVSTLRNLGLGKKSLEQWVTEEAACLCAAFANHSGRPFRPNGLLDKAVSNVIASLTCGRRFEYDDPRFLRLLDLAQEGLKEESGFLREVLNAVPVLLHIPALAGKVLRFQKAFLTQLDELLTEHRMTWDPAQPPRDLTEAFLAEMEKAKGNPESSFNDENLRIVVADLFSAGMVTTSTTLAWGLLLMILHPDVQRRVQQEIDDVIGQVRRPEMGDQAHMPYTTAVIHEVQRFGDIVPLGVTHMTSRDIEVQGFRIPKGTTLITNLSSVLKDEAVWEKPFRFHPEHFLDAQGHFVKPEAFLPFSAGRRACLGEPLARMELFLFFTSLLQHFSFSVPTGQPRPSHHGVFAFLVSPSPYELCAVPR
Sequence of Voltage-gated inwardly rectifying potassium channel KCNH2 (Q12809 whole entry): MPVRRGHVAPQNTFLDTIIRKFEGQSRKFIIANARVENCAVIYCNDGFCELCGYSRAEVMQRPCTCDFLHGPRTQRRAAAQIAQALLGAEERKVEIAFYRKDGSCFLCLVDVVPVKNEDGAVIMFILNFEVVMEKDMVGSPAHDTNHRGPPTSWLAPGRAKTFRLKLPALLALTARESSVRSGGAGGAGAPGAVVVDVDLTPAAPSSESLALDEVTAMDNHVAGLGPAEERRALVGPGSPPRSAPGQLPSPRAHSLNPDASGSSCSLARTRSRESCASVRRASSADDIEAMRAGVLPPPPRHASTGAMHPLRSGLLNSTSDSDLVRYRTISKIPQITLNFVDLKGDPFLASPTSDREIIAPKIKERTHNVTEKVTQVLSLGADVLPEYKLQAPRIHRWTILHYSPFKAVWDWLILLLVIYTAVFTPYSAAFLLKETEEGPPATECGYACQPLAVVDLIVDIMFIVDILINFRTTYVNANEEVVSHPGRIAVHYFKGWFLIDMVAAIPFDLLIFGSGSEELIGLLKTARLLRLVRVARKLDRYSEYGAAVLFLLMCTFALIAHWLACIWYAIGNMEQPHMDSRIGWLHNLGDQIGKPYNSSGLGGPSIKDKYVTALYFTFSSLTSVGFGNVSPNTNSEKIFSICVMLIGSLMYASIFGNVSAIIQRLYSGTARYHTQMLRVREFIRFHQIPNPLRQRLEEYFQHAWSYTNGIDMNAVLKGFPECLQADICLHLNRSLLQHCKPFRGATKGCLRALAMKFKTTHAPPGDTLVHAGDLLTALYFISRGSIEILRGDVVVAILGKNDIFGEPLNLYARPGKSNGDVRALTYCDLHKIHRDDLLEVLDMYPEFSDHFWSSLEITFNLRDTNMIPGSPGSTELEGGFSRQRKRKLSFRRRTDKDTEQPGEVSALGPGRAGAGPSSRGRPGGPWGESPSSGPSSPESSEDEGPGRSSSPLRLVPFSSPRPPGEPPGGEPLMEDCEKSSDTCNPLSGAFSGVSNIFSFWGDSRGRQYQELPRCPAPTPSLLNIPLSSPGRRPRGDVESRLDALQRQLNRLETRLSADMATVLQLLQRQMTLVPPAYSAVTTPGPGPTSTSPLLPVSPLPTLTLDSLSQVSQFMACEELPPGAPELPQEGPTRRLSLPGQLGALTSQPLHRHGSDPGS

## Nc1nc2cnc(C(=O)N3CCOC[C@@H]3c3ccc(C(F)(F)F)cc3)cc2c2c1COC2
Human MDR1 (P-gp)
  efflux ratio: 3
[1]
  microsomal CLint at 0.5 µM: 24 µL/min/mg
[2]
  CL free: 142 mL/min/kg
U-87 MG
  IC50: 0.357 µM
[3]
  IC50: > 29 µM
[4]
  solubility: 492 µM (≈ 219 µg/mL)
[5]
  solubility: 257 µM (≈ 114 µg/mL)
Cytochrome P450 2D6
  IC50: 117 µM
[6]
  microsomal CLint at 0.5 µM: 123 µL/min/mg
[7]
  microsomal CLint: 14 µL/min/mg
[8]
  hepatocyte CLint: 31 µL/min/1e6 cells
[9]
  hepatocyte CLint: 13 µL/min/1e6 cells
[10]
  fraction unbound: 0.1
[11]
  fraction unbound: 0.08
[12]
  Activity: Non-toxic
[13]
  Papp at up to 10 µM: 33 ×10⁻⁶ cm/s
[14]
  efflux ratio: 3
[15]
  Activity: Not_active
[16]
  Kp uu: 0.15
[17]
  Kp uu: 0.14
[18]
  Kp uu: 0.2
[19]
  Kp uu: 0.13
[20]
  Kp uu: 0.2
[21]
  inhibition: 48%
[22]
  inhibition: 73%
[23]
  inhibition: 71%
HCT-116 [24]
  inhibition in vivo at 30 mg/kg: 74%
HCT-116 [25]
  inhibition in vivo at 100 mg/kg: 87%
[26]
  Activity: Non-toxic
[27]
  Activity: Non-toxic
[28]
  inhibition in vivo at 300 mg/kg: 88%
[29]
  inhibition: 83%
[30]
  Activity: Non-toxic
